Measurements: US11590472B2, “Methods and compositions for on-demand release of ClO2 gas from UV-activated chlorite ion” (Wisconsin Alumni Research Foundation, priority 2015, dated 2023)

Tested on: L. monocytogenes
Test: Microbial kill on L. monocytogenes inoculated lettuce in pouches
Type: cell-based
Settings: 5 days post inoculation and packaging
From the text: To verify its efficacy against pathogenic bacteria, pouch samples were sent to Institute of Food Safety and Health (IFSH) for a microbial study where they were filled with 30 grams of lettuce that was inoculated with the L. monocytogenes with an initial count of 7.6E+06 CFU/g. The pouches were the same structure and size as Produce Packaging Example 1. The pouches were exposed to 3 s or 5 s of 254 nm UV radiation and analyzed for the microbial kill at 1 and 5 days. […] The pouches containing the ClO2 additive were either pre humidified to 80% RH or left unconditioned. The moisture required for the chlorine dioxide production in the dry samples came from the lettuce. It was observed that chlorine dioxide was able to attain 4-5 log kill in 5 days post inoculation and packaging.

## [O][Cl+][O-] [chlorine dioxide]
  log kill of L. monocytogenes: 4-5 log
